Reference: patent US20220257636A1, “REDUCTION OF BONE RESORPTION, ESPECIALLY IN CHRONIC JOINT DISEASES” (TECHNISCHE UNIVERSITÄT DARMSTADT, priority 2019, published 2022)
“Also recorded” adds a separate entry of the source. {Cy5} = Cyanine5 fluorescent label

What was measured:
CD14+ monocytes [1] = assay: Cytokine mRNA levels by RT-qPCR after stimulation of CD14+ monocytes; format: cell-based, human
Experimental: CD14^+ monocytes were stimulated with sEVs from the synovial fluid of ACPA positive patients with rheumatoid arthritis (4 μg/ml), with miR-574-5p oe sEVs (1 μg/ml) or with ScrC sEVs (1 μg/ml) for 4 hours each. Then the whole RNA was isolated and the mRNA levels of IL-23, IL-8, INFα, IL-1β and TNFα were analyzed with RT-qPCR. These cytokines are known for their influence onto the differentiation of osteoclasts (Amara-sekara D. S., Yun Ii., Kim S., Lee N. and Rho J. (2018). “Regulation of Osteoclast Differentiation by Cytokine Networks.” Immune Netw 18: • 1-18). The sequences of the primer pairs used are shown in the sequence protocol (SEQ ID NOs: 6-7 for INFα, SEQ ID NOs: 8-9 for IL-23, SEQ ID NOs: 10-11 for TNFα, SEQ ID NOs: 12-13 for IL-1β and SEQ ID NOs: 14-15 for IL-8). For the normalization of the cDNA amounts in different samples the levels of β-actin were used (primer pair: SEQ ID NOs: 16-17).

pre-osteoclasts = assay: Induction of osteoclast genesis, substances added to pre-osteoclasts; format: cell-based, human; conditions: TLR7/8 agonist added to pre-osteoclasts
Experimental: (§1) After 9 to 12 days the cells were fixed and tested for the osteoclast marker TRAP (tartrate-resistant acid phosphatase). TRAP positive cells which also comprised at least three nuclei were classified as osteoclasts and counted with the light microscope.
(§2) Isolated human CD14^+ monocytes were treated with 1 μg/ml miR-574-5p oe sEVs or ScrC sEVs at different time points of the differentiation (FIG. 8A, 8B, 8C).

[2] = tested on: freshly isolated human monocytes
Experimental: The cytotoxicity was tested with an MTT assay in which the eponymous dye MTT (3-(4,5-dimethylthiazol-2-yl)-2,5-diphenyltetrazoliumbromide) is used. As negative control a PNA with a sequence which was not complementary to miR-574-5p and which was also bound to CPP by means of the PEG linker was tested (SEQ ID NO: 30). The CPP-PNA construct of the negative control used can be illustrated as follows (from the N-terminus to the C-terminus): [sequence]-(eg1)-[sequence](K—NH2). The negative control differs from the above-described construct according to the present invention only with respect to the PNA sequence.
The cytotoxicity was tested on freshly isolated human monocytes.

CD14+ monocytes [3] = assay: Induction of osteoclast genesis (count of TRAP positive multinuclear cells), substances added to CD14+ monocytes; format: cell-based, human
Source text: (§3) CD14^+ monocytes were isolated from PMBCs (peripheral blood mononuclear cells) of healthy donors and stimulated with M-CSF (recombinant human macrophage colony-stimulating factor), RANK-L (receptor activator of NF-κB ligand) and different concentrations of the isolated sEVs. With the sEVs isolated from the synovial fluid both freshly isolated monocytes and differentiated M2-like macrophages were stimulated (FIG. 2).
as §1, §2
The influence of the miR-574-5p PNA AntagomiR which was coupled to CPP onto the osteoclast genesis was tested. This scheme has been adapted such that on day 1 the CPP-coupled miR-574-5p PNA AntagomiR (CPP-PNA) was added in concentrations of 10 μM or 20 μM. The negative control was conducted without any addition of CPP-PNA (0 μm CPP-PNA). […] Also for this experiment freshly isolated human monocytes were used. After the completion of the differentiation matured osteoclasts were visualized with the help of histologic staining (detection of tartrate-resistant acid phosphatases, TRAP). Subsequently, multinuclear TRAP positive cells are quantified under a light microscope.

M2-like macrophages = assay: Induction of osteoclast genesis (count of TRAP positive multinuclear cells), substances added to M2-like macrophages; format: cell-based, human; conditions: added with miR-574-5p to M2-like macrophages (FIG. 10D)
Source text: as §3, §1, §2

TLR8 = molecular target: T1, TLR8 (Homo sapiens, UniProt Q9NR97); assay: MST (microscale thermophoresis) direct interaction with TLR8; format: binding; conditions: Cy5-labeled miR
T1 sequence (Q9NR97 27-1041): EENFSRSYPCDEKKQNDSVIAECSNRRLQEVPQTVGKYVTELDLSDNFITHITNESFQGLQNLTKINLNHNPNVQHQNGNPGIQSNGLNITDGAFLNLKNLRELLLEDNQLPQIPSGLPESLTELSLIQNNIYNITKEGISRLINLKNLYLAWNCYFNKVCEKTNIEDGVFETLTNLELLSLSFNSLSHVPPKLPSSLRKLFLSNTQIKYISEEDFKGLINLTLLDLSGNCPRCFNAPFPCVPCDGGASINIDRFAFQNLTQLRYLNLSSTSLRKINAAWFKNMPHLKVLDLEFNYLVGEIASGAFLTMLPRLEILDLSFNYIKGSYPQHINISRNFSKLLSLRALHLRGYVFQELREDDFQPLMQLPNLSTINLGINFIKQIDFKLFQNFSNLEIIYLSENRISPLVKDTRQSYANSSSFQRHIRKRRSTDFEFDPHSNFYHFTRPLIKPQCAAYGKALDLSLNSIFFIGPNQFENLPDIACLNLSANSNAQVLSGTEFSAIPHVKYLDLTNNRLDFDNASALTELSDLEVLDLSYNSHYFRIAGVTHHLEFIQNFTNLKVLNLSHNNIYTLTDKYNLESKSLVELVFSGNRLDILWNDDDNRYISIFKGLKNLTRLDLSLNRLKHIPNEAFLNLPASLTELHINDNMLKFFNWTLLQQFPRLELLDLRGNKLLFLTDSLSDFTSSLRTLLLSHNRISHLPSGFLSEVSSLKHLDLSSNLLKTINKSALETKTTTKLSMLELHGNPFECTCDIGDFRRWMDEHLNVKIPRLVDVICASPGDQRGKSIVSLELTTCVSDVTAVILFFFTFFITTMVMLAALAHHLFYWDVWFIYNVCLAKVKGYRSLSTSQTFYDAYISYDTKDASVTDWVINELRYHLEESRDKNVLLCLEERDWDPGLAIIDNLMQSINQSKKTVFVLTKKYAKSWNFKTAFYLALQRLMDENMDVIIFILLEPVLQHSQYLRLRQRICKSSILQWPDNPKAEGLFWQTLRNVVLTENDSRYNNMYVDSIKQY
Source text: In the context of the present invention, a direct interaction of miR-574-5p with TLR8 was detected by means of MST (microscale thermophoresis); (Wienken C. J., Baaske P., Rothbauer U., Braun D. and Duhr S. (2010). “Protein-binding assays in biological liquids using microscale thermophoresis.” Nat Commun 1: 100). […] For the MST experiments Cy5-labeled miR-574-5p (SEQ ID NO: 18) and Cy5-labeled miR-16-5p (SEQ ID NO: 19) were used.

[4] = 10 ng/ml, compared with miR-574-5p oe sEVs (FIGS. 11E and 11F)

Compound: CCOCc1nc2c(N)nc3ccccc3c2n1CC(C)(C)O [R848]
- IL-23 mRNA (CD14+ monocytes [1]; [4]): Comparable results
- INFα mRNA (CD14+ monocytes [1]; [4]): Comparable results
- osteoclast genesis (pre-osteoclasts): no significant increase

Compound: GRKKRWFRRRRMKWKK-(eg1)-ctcacacacacacactca(K—CONH2) (PEG linker, C-terminal amide; Cell Penetrating Peptide (CPP); Peptide Nucleic Acid (PNA) AntagomiR) [CPP-coupled miR-574-5p PNA AntagomiR]
- cytotoxicity (MTT, viability) [2]: Neither in the case of the negative control (FIG. 13A) nor in the case of miR-574-5p PNA AntagomiR (FIG. 13B) a significant toxicity was observed
- viability in comparison to the untreated control [2]: increased viability
- osteoclast genesis (CD14+ monocytes [3]; added on day 1 at 10 μM or 20 μM, versus 0 μM, TRAP positive multinuclear cells): concentration-dependent reduction

Compound: GRKKRWFRRRRMKWKK-(eg1)-gctattaccttaacccag(K—NH2) (GCTATTACCTTAACCCAG; all peptide nucleic acid (PNA); N-terminal cell-penetrating peptide via eg1 linker, C-terminal lysine amide, further chemistry not fully specified) [negative control]
- cytotoxicity (MTT, viability) [2]: Neither in the case of the negative control (FIG. 13A) nor in the case of miR-574-5p PNA AntagomiR (FIG. 13B) a significant toxicity was observed

Compound: ODN 2087: TLR7/8 inhibitor oligonucleotide, SEQ ID NO: 24, MiltenyiBiotec (TCCTGAGCTTGAAGT; DNA, all phosphorothioate, methylation of C not given here)
- effect of inhibitor on the miR-574-5p induced increase of the number of osteoclasts (M2-like macrophages): nullifies the effect
- effect of inhibitor on the R848 effect on the number of osteoclasts (CD14+ monocytes [3]; added with R848 (FIGS. 10E and 10F)): nullify the effect
- effect of inhibitor on the miR-574-5p induced increase of the number of osteoclasts (CD14+ monocytes [3]; added with miR-574-5p to CD14+ monocytes (FIG. 10C)): nullifies the effect
- effect of inhibitor on the induced INFα and IL-23 mRNA increases (CD14+ monocytes [1]; added to the stimulation with sEVs or R848): nullify the observed effects

Compound: miR-16-5p: microRNA; Cy5-labeled form (SEQ ID NO: 19) used for MST (UAGCAGCACGUAAAUAUUGGCG; RNA, 3' {Cy5}, backbone not given here)
- specific interaction with TLR8 (TLR8): specific interaction between TLR8 and miR-16-5p was not shown; also recorded: specific interaction between TLR8 and miR-16-5p was not observed

Compound: miR-574-5p: microRNA, SEQ ID NO: 4; Cy5-labeled form (SEQ ID NO: 18) used for MST (UGAGUGUGUGUGUGUGAGUGUGU; Cy5-labeled form used for MST, label position not given here; listed as Homo sapiens)
- Kd (TLR8; read-out: constant of dissociation KD): 30.8 ± 5.2 nM
- stimulation of the osteoclast genesis (CD14+ monocytes [3]; miR-574-5p alone, not in sEVs (FIG. 9)): Neither miR-574-5p alone, nor miR-574-5p in the presence of synthetic liposomal vehicles (Lipofectamine® 2000 (Thermo Fisher Scientific, Waltham, USA)) results in a stimulation
- stimulation of the osteoclast genesis (CD14+ monocytes [3]; miR-574-5p in the presence of synthetic liposomal vehicles (Lipofectamine 2000) (FIG. 9)): Neither miR-574-5p alone, nor miR-574-5p in the presence of synthetic liposomal vehicles (Lipofectamine® 2000 (Thermo Fisher Scientific, Waltham, USA)) results in a stimulation
- IL-1β mRNA level (CD14+ monocytes [1]; any of the conditions tested): not influenced
- IL-8 mRNA level (CD14+ monocytes [1]; any of the conditions tested): not influenced
- TNFα mRNA level (CD14+ monocytes [1]; any of the conditions tested): not influenced
